pIC50: −log10 of the molar value.
Key:
[1] = test system: Klebsiella pneumoniae ATCC 13883; test: Antimicrobial activity, agar well diffusion; type: cell-based; conditions: Dose 0.6 mg/disk, dwell = 6 mm
[2] = test system: gastric smooth muscle preparations (SMPs) from Wistar rats; test: Ex vivo smooth muscle relaxant activity; set-up: species or system rat; conditions: for Tonic relaxation: 5 × 10^−5 mol/L, SM pre-contracted with 1 × 10^−7 mol/L CCh
Text: The utilization of an SM preparation from the corpus of a rat stomach that had been pharmacologically pre-contracted was the main goal of our work. The excitatory neurotransmitter acetylcholine (ACh) in the enteric nervous system is appropriate for this purpose. It affects the digestive system by increasing the amplitude of digestive contractions and peristalsis in the stomach. We evaluated the viability of the SM using their stimulatory impact. Via muscarinic (M2 and M3) receptors, ACh and its counterpart cholinergic agonist carbachol (CCh, carbamylcholine) cause excitatory motor responses in GI SM cells. Unlike ACh, which breaks down quickly, CCh has a long-lasting response. Therefore, we used CCh to start the induced muscle contraction. […] A persistent, prolonged tonic contraction that is brought on by the extracellular inflow of Ca^2+ into SM cells occurs next. The relaxation effects of the tested compounds 3 and 4a–e were investigated by cumulative addition of the tested substances in concentrations of 1 × 10^−7, 5 × 10^−7, 1 × 10^−6, 5 × 10^−6, 1 × 10^−5, 5 × 10^−5, and 1 × 10^−4 mol/L at the plateau of the CCh-induced contraction. In order to measure relaxation, the percent decrease in contractile tension from the 1 × 10^−7 mol/L CCh-induced maximum was used. All subsequent reactions to chemicals were reported as a percentage of the submaximal SM contractile responses elicited by CCh, which were taken as 100% values and expressed as a base value for all subsequent responses (Figure 10A). Results were presented as mean ± SD.
SMPs with dimensions 1.0–1.5 mm wide and 10–12 mm long were obtained from adult male Wistar rats weighing about 270 g. […]
The pH of the solution was measured before each experiment using a pH-meter HI5521 (Hanna Instruments, Smithfield, RI, USA). […]
Experiments were performed to investigate the cumulative dose-dependent relaxation effects of compounds 3 and 4a–e on gastric SMPs, pre-contracted with CCh (1 × 10^−^7 mol/L). The CA of the SMPs and the changes in substance-evoked reactions were detected isometrically. […]

[3] = target: T1, human albumin (Homo sapiens, UniProt P02768); test: Inhibition of albumin denaturation (anti-inflammatory activity); type: biochemical; conditions: heat-induced denaturation
T1 construct: purchased Octapharma (IP) SPRL Albunorm 20
Description: Anti-denaturation assay was conducted as described by Kumari et al. with slight modifications. The reaction mixture consisted of 0.5 mL of 5% aqueous solution of human albumin (Albunorm 20, Octapharma (IP) SPRL, 1070 Anderlecht, Belgium) and 0.2 mL of the tested compound, dissolved in DMSO, at different concentrations (20–500 μg/mL). The samples were incubated at 37 °C for 15 min. After that, 2.5 mL phosphate-buffered saline (pH 6.3) was added to each tube and the samples were heated for 30 min to 80 °C and then cooled for 5 min. Turbidity was measured spectrophotometrically at 660 nm (Cary 60 UV-Vis, Agilent Technologies, Santa Clara, CA, USA). For the blank sample, a mixture of 2.5 mL buffer and 0.2 mL DMSO was used instead of the compounds, while the product control test lacked the compounds’ concentration having 0.5 mL serum albumin, and 2.5 mL buffer only. The percentage inhibition of protein denaturation was calculated as follows:Percentage of inhibition denaturation = (Absorbancecontrol − Absorbancesample) / Absorbancecontrol × 100
The control represents 100% protein denaturation.
Commercially available over-the-counter non-steroidal anti-inflammatory drugs diclofenac sodium and acetylsalicylic acid were used for comparison. Their anti-inflammatory effect was determined as a percentage of inhibition of albumin denaturation following the same protocol as for the novel compounds.

T1 sequence (P02768 25-609): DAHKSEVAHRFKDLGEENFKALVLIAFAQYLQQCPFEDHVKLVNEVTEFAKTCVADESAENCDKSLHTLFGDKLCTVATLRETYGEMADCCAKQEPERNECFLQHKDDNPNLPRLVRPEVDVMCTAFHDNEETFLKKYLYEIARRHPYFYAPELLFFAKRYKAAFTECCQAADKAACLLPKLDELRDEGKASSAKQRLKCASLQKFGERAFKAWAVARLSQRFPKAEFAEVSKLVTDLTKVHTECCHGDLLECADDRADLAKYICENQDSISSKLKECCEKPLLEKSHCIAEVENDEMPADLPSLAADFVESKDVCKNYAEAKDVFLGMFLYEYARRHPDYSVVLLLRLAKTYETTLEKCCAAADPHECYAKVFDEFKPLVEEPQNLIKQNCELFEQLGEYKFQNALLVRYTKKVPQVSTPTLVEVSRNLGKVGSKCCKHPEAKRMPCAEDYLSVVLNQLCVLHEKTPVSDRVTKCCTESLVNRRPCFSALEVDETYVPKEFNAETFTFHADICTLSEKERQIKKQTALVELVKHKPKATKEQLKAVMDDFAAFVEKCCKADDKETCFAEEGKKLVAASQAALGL

Q: For `CC(=O)Nc1ccccc1C(=O)NCCc1cccc(Cl)c1` [Compound 4a, 2-acetamido-N-(3-chlorophenethyl)benzamide], which “Inhibition Zones” value [1] is on record?
A: The value was 14 mm.

Q: What about the Tonic relaxation [2] of the same molecule?
A: Its Tonic relaxation is 52%.

Q: How did the pIC50 [3] turn out when `O=C(Nc1ccccc1C(=O)NCCc1cccc(Cl)c1)c1ccccc1` [Compound 4b, 2-benzamido-N-(3-chlorophenethyl)benzamide] was run?
A: The pIC50 was 2.71.

Q: For `Nc1ccccc1C(=O)NCCc1cccc(Cl)c1` [Compound 3, 2-amino-N-(3-chlorophenethyl)benzamide], which “Inhibition Zones” value [1] is on record?
A: The value was 8 mm.

Q: And the pIC50 [3]?
A: Its pIC50 is 2.62.

Q: What about the Tonic relaxation [2] of the same molecule?
A: The Tonic relaxation was 59%.

Q: And the “effect on amplitude of spontaneous contractions” value ([2]; submaximal concentration of 5 × 10^−5 mol/L)?
A: Its value is “more than 50%”.
